# What was measured:
# [1] = test system: Lolium spp. resistant to HRAC group A; assay: Greenhouse experiment, post-emergence treatment of resistant ryegrass biotypes (HRAC group A resistant); type: in vivo; settings: post-emergence (PO, BBCH 11), about 3 weeks after application, dose g of AS/ha: aclonifen 225, pendimethalin 300, diflufenican 30, mixture 225 + 300 + 30, pinoxaden + cloquintocet-mexyl 60 + 15
# Protocol: (§1) In the standard design of the test, seeds of various broad-leaved weed and weed grass biotypes (origins) were sown in a 8-13 cm diameter pot filled with natural soil of a standard field soil (loamy silt; non-sterile) and covered with a covering soil layer of about 1 cm. The pots were then cultivated in a greenhouse (12-16 h light, temperature day 20-22° C., night 15-18° C.) until the time of application. The pots were treated on a laboratory track sprayer with spray liquors comprising the compositions according to the invention, mixtures of the prior art or components used individually. Application of the active compounds or active compound combinations formulated as WG, WP, EC or otherwise was carried out at the appropriate growth stages of the plants. The amount of water used for spray application was 100-600 l/ha. After the treatment, the plants were returned to the greenhouses.
# (§2) About 3 weeks after the application, the soil action or/and foliar action was assessed visually according to a scale of 0-100% in comparison to an untreated comparative group: 0%=no noticable effect compared to the untreated comparative group; 100%=full effect compared to the untreated comparative group.
# (§3) 2. Post-emergence action against weeds: seeds of various broad-leaved weed and weed grass biotypes (origins) were sown in a 8-13 cm diameter pot filled with natural soil of a standard field soil (loamy silt; non-sterile) and covered with a covering soil layer of about 1 cm. […]
# (§4) Insofar as herbicidal effects of the compositions according to the invention compared to mixtures of the prior art or compared to components applied individually against economically important mono- and dicotyledonous harmful plants were the center of attention, the synergistic herbicidal activities were calculated using Colby's formula (cf. S. R. Colby; Weeds 15 (1967), 20-22): E^C=(A+B+C)−(A×B+A×C+B×C)/100+(A×B×C)/10000 where: […]
# (§5) Δ=difference (%) of the measured value (%) to the expected value (%) (measured value minus expected value). […]
# [2] = test system: Lolium spp. resistant to HRAC group B; assay: Greenhouse experiment, post-emergence treatment of resistant ryegrass biotypes (HRAC group B resistant); type: in vivo; settings: post-emergence (PO, BBCH 11), about 3 weeks after application, dose g of AS/ha: aclonifen 225, pendimethalin 300, diflufenican 30, mixture 225 + 300 + 30, mesosulfuron + iodosulfuron + mefenpyr 15 + 3 + 45
# Protocol: as §1, §2, §3, §4, §5
Structure (SMILES),"herbicidal effect (visual assessment, scale 0-100% vs untreated), measured value [1] [%]","herbicidal effect (visual assessment, scale 0-100% vs untreated), measured value [2] [%]"
"Nc1c([N+](=O)[O-])ccc(Oc2ccccc2)c1Cl [(A) aclonifen, 2-chloro-6-nitro-3-phenoxybenzenamine]",25,50
"CCC(CC)Nc1c([N+](=O)[O-])cc(C)c(C)c1[N+](=O)[O-] [(B) pendimethalin, N-(1-ethylpropyl)-3,4-dimethyl-2,6-dinitrobenzenamine]",5,0
"O=C(Nc1ccc(F)cc1F)c1cccnc1Oc1cccc(C(F)(F)F)c1 [(C) diflufenican, N-(2,4-difluorophenyl)-2-[3-(trifluoromethyl)phenoxy]-3-pyridinecarboxamide]",10,5
